In patent publication US20250262152A1, “DEVICES, SYSTEMS, KITS, AND METHODS FOR DRUG DELIVERY TO THE SPINAL CORD” (Ohio State Innovation Foundation, priority 2022, published 2025):

Assay: proof-of-principle fluorescence tracer study: delivery to the spinal cord with dumbbell-shaped dual chamber stentgraft and histamine portal
Format: in vivo
Description: As a proof-of-principle study, we evaluated this strategy by using a dumbbell-shaped dual chamber stentgraft to deliver a fluorescent tracer (fluorescein dye) to the spinal cord. In this fluorescence tracer study, delivery of the tracer to the spinal cord using the dumbbell stentgraft was performed using a histamine portal (see FIGS. 3A-3C and FIG. 5). The dual chamber stent was used to deliver a “pulse” of histamine specifically to the spinal cord region of interest to create a “portal” in the BBB (i.e., a local increase in BBB permeability).
Dual chamber, retrievable stent graft: Stents were laser cut from the shape memory alloy, nitinol, and thermally shapeset into a dumbbell shape. The scaffold was affixed to a permanently attached delivery/retrieval wire, encapsulated in the polymer polytetrafluoroethelene (Zeus, Inc) with a perfusion cannula to the outer chamber and compressed into a sheath for endovascular delivery.

delivery of fluorescein to the spinal cord (local administration in combination with portal agent (histamine) as compared to intravascular tracer injection alone, FIG. 5): much higher
Structure (SMILES): O=C1OC2(c3ccc(O)cc3Oc3cc(O)ccc32)c2ccccc21 [fluorescein]
staining of spinal cord cross sections viewed under UV Woods lamp (histamine pulse followed by tracer delivered to outer chamber of dual chamber stentgraft, FIG. 3C): successful staining of the entirety of the spinal cord
